# According to patent US5108916A, “Process for stereoselectively hydrolyzing, transesterifying or esterifying with immobilized isozyme of lipase from Candida rugosa” (priority 1989, dated 1992):
# Several values for one entry are separate records, joined by “and”; a condition that tells them apart may be missing. Equal entries are not always repeated. Where two headings read alike, the source gives them in different places.
# Experiments:
# Solubility of HPPA-Me = format: physicochemical
# Lipase MY [1] = assay: Product inhibition of Lipase MY; format: biochemical, Candida rugosa
# Experimental: Two hydrolysis reactions were run to determine the effect of methanol, produced as a by-product of the hydrolysis of HPPA-Me, on the activity of Lipase MY. (R,S)-HPPA-Me, 1.5 moles, 1 L of 1 M NH4 OAc, pH 6.5, 150 ml toluene, and 2 g Lipase MY were placed in flasks with and without 0.75 moles of methanol. The mixtures were shaken gently and sampled at various times to determine the concentrations of each of the stereoisomers of HPPA which were produced.
# To determine the effect of the (R)-HPPA produced during the hydrolysis of (R,S)-HPPA-Me on the activity of Lipase MY, a series of three experiments were performed. Ammonium acetate, 200 ml, 0.04 M, pH 7.0, was combined with 30 ml of toluene, 40 mmoles (R,S)-HPPA-Me, 25 mg Lipase MY, and 0, 30, or 100 mM (R)-HPPA. The reactions were shaken gently for 136 hours and sampled at various times to determine the concentrations of each of the stereoisomers of HPPA which were produced.
# Lipase MY [2] = assay: Effect of reducing agents on immobilized Lipase MY in the presence of HPPA; format: biochemical, Candida rugosa; settings: for prevention of loss of enzyme activity: repeated batches, Tables 3-5
# [3] = 2 mg/ml in 1M HPPA, 4 days, control enzyme 100%, HPPA treated 70.4%
molecule,measurement,setting,value
"CC(Oc1ccc(O)cc1)C(=O)O (stereo not drawn) [HPPA, 2-(4-hydroxyphenoxy)propionic acid]",solubility,"Solubility of HPPA-Me; aqueous solution, pH 6.5",high solubility
same,reduction in enzyme activity,"Lipase MY [1]; various amounts (30, 100 mM) at the beginning",10-67%
"O=S([O-])S(=O)[O-].[Na+].[Na+] [Na2 S2 O4, sodium hydrosulfite]",Relative Activity,"Lipase MY [2]; 8 mg/ml, 5760 min",111%
same,Relative Activity,"Lipase MY [2]; 16 mg/ml, 5760 min",112%
same,Conversion (%) of HPPA-Me to HPPA,"Lipase MY [2]; Na2S2O4 25 mg, batches as E39",25% and 21% and 34% and 23% and 29% and 18% and 31%
same,prevention of loss of enzyme activity,Lipase MY [2],effective at preventing loss of enzyme activity
"O=S([O-])[O-].[Na+].[Na+] [Na2 SO3, sodium sulfite]",Relative Activity,Lipase MY [2]; [3],95%
same,Relative Activity,Lipase MY [2]; 4 mg/ml,101%
same,Relative Activity,"Lipase MY [2]; 8 mg/ml, 5760 min",110%
same,Relative Activity,"Lipase MY [2]; 16 mg/ml, 5760 min",111%
same,Conversion (%) of HPPA-Me to HPPA,"Lipase MY [2]; Na2SO3 10 mg, batches as E44",26% and 20% and 16% and 14% and 13% and 15%
same,prevention of loss of enzyme activity,Lipase MY [2],Neither sodium sulfite nor cystine was effective
"COC(=O)C(C)Oc1ccc(O)cc1 (racemic) [HPPA-ME, (R,S)-(+)-methyl-2-(4-hydroxyphenoxy)-propionate]",solubility,"Solubility of HPPA-Me; aqueous solution, pH 6.5, read-out: solubility",< 25 mM
same,Solubility (HPPA-ME),Solubility of HPPA-Me; in trichlorotrifluoroethane,insoluble
same,solubility,"Solubility of HPPA-Me; organic solvent or mixture, in 1,1,2 trichloroethane, read-out: Solubility (HPPA-ME)",558 mg/mL
same,solubility,"Solubility of HPPA-Me; organic solvent or mixture, in 1,2-dibromoethane, read-out: Solubility (HPPA-ME)",566 mg/mL
same,solubility,"Solubility of HPPA-Me; organic solvent or mixture, in carbon tetrachloride, read-out: Solubility (HPPA-ME)",33 mg/mL
same,solubility,"Solubility of HPPA-Me; organic solvent or mixture, in cumene, read-out: Solubility (HPPA-ME)",20 mg/mL
same,solubility,"Solubility of HPPA-Me; organic solvent or mixture, in cyclohexane, read-out: Solubility (HPPA-ME)",66.4 mg/mL
same,solubility,"Solubility of HPPA-Me; organic solvent or mixture, in fluorobenzene, read-out: Solubility (HPPA-ME)",156 mg/mL
same,solubility,"Solubility of HPPA-Me; organic solvent or mixture, in tetrachloroethylene, read-out: Solubility (HPPA-ME)",1.4 mg/mL
same,solubility,"Solubility of HPPA-Me; organic solvent or mixture, in toluene, read-out: Solubility (HPPA-ME)",236 mg/mL
CO [methanol],decrease in activity of the enzyme against HPPA-Me,Lipase MY [1]; 0.5 equivalents at the start of the reaction,39%
tetrabutylammonium cyanoborohydride [Bu4 N CNBH3],Relative Activity,"Lipase MY [2]; 1m hppa phosphate, pH 6.5, 5760 min, 5760 min",83% and 81% and 88% and 85%
N[C@@H](CSSC[C@H](N)C(=O)O)C(=O)O [cystine],Relative Activity,Lipase MY [2]; [3],83%
same,Relative Activity,Lipase MY [2]; 4 mg/ml,76%
same,Relative Activity,"Lipase MY [2]; 8 mg/ml, 5760 min",81%
same,Relative Activity,"Lipase MY [2]; 16 mg/ml, 5760 min",83%
same,conversion of HPPA-Me (quantity not headed in Table 5),"Lipase MY [2]; Cystine 2.5 mg, 15 hrs, batch #: 1, 5, 9, 15, 16, 20, 21, 22",30 and 19 and 17 and 16 and 20
same,prevention of loss of enzyme activity,Lipase MY [2],Neither sodium sulfite nor cystine was effective
